# Laboratory results published in patent US20250270200A1, “CTPS1 INHIBITORS AND USES THEREOF” (Nimbus Clotho, Inc., priority 2022, published 2025).
# Where a name gives a salt, the structure may show the parent alone.
# Biological target: T1, human CTPS1 (Homo sapiens, UniProt P17812)
# T1 sequence (P17812 1-591): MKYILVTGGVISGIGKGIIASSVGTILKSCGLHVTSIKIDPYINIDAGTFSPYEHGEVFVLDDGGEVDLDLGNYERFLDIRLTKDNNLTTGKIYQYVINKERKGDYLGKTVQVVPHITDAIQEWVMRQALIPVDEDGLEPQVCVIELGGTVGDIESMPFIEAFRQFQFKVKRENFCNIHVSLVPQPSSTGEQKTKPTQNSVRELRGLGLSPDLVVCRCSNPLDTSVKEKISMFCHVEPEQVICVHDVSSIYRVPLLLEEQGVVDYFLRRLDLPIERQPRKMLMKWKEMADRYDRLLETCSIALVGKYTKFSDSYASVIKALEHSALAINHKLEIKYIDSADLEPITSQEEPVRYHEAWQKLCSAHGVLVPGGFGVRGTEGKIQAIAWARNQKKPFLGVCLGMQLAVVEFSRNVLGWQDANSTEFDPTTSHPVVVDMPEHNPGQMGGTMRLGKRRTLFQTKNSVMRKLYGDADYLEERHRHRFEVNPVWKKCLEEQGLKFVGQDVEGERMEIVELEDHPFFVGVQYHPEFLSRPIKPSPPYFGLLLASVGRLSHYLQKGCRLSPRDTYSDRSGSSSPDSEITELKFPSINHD
# Experiment: ADP-Glo assay, human CTPS1 enzyme inhibition
# Assay type: biochemical
# Details: wild-type human CTPS1 25 nM; ATP 120 μM, UTP 160 μM, GTP 60 μM, L-glutamine 100 μM; 25 degrees C.; read-out: ADP-Glo_WT_hCTPS1—25 nM_IC50 (IC50)
# Method: The enzyme inhibitory activities of the compounds of the invention against the target of interest were determined using the ADP-Glo™ assay (Promega). Assays for human CTPS1 and CTPS2 were performed in 1× assay buffer containing 50 mM HEPES (Life Technologies), 10 mM Mg2+, 5 mM KCl, 2 mM DTT, 0.01% F-127, pH to 7.4 accordingly. All reagents are from Sigma-Aldrich, unless specified otherwise. Purified human full length active N-terminal FLAG-8×HIS-TEV tagged CTPS1 (UniprotKB—P17812, […]-CTPS1[1-591]) was generated using a mammalian expression system at Viva Biotech (Shanghai) Ltd.
# Purified human CTPS1 protein was prepared in 1× assay buffer to the final working protein concentration required for the reaction. A 2.5 μL volume per well of human CTPS 1 protein was mixed with 0.1 μL per well of test compound dissolved in DMSO and pre-incubated at 25 degrees C. for 10 minutes. 2.5 μL per well of the reaction precursors ATP (UltraPure ATP from ADP-Glo™ kit) and UTP were then added and pre-incubated for an additional 10 minutes at 25 degrees C. Finally, the reaction was initiated by the addition of 5 μL of the reaction precursors L-glutamine and GTP. The final concentration of all reaction components in the assay: ATP (120 μM), UTP (160 μM), GTP (60 μM), L-Glutamine (100 μM), DMSO (1%), hCTPS1 (25 nM). This mixture was incubated for an appropriate amount of time within the determined linear phase of the reaction at 25 degrees C. under sealed plate conditions with constant agitation at 500 revolutions per minute (rpm). ADP-Glo™ reagent was added for 60 minutes (10 μL per well) and subsequently ADP-Glo™ development reagent was added for 60 minutes (20 μL per well) prior to signal detection in a microplate reader (Envision Multilabel Reader, Perkin Elmer). Following each reagent addition over the course of the assay, assay plates were pulse centrifuged for 1 minute at 1000 rpm.
# The enzyme converts ATP to ADP and the ADP-Glo™ reagent subsequently depletes any remaining ATP in the reaction system. The ADP-Glo™ detection reagents converts the ADP that has been produced by the enzyme back into ATP, which is then utilized as a substrate together with luciferin for the enzyme luciferase. Light generated by this chemiluminescent reaction is quantified and is directly proportional to the amount of ADP produced by the CTPS1 enzyme reaction. […]
row,IC50,Compound
1,5 to 25 nM,"O=C(N[C@@H](c1cc(NS(=O)(=O)C2CC2)ccn1)C1CCOCC1)c1nnc(-c2cnn3ccc(Cl)cc23)s1 (single isomer, unassigned) [II-16]"
2,25 to 50 nM,"CCOc1cncc(-c2cnc(C(=O)N[C@@H](c3cccc(NS(=O)(=O)C(F)F)c3)[C@@H](C)CN3CCCCC3)s2)n1 (single isomer, unassigned) [II-11]"
3,> 100 nM,"CCOc1cncc(-c2cnc(C(=O)N[C@H](c3cccc(NS(=O)(=O)C(F)F)c3)[C@H](C)CN3CCCCC3)s2)n1 (single isomer, unassigned) [II-13]"
4,5 to 25 nM,"CCOc1cncc(-c2cnc(C(=O)N[C@@H](c3cccc(NS(=O)(=O)C(F)F)c3)[C@H](C)CN3CCCCC3)s2)n1 (single isomer, unassigned) [II-12]"

# Same assay, conditions: wild-type human CTPS1, 25 nM enzyme; ADP-Glo; read-out: ADP-Glo_WT_hCTPS1—25 nM_IC50 (IC50)
row,IC50,Compound
1,25 to 50 nM,"CCOc1cncc(-c2ccc(C(=O)N[C@@H](COC)c3cc(NS(=O)(=O)C4CC4)ccn3)c(F)c2)n1 [I-282, (R)-N-(1-(4-(cyclopropanesulfonamido)pyridin-2-yl)-2-methoxyethyl)-4-(6-ethoxypyrazin-2-yl)-2-fluorobenzamide]"
2,25 to 50 nM,"CCOc1cncc(-c2ccc(C(=O)N[C@@H](c3cc(NS(=O)(=O)C4CC4)ccn3)[C@H]3CCCO3)nc2)n1 [I-70, N-((S)-(4-(cyclopropanesulfonamido)pyridin-2-yl)((R)-tetrahydrofuran-2-yl)methyl)-5-(6-ethoxypyrazin-2-yl)picolinamide]"
3,5 to 25 nM,"CCOc1cncc(-c2cnc(C(=O)N[C@H](CN3CC[C@@](C)(O)C3)c3cc(NS(=O)(=O)C4CC4)ccn3)s2)n1 [I-132, N-((R)-1-(4-(cyclopropanesulfonamido)pyridin-2-yl)-2-((R)-3-hydroxy-3-methylpyrrolidin-1-yl)ethyl)-5-(6-ethoxypyrazin-2-yl)thiazole-2-carboxamide]"
4,5 to 25 nM,"O=C(N[C@@H](c1cc(NS(=O)(=O)C2CC2)ccn1)[C@@H]1CCOC1)c1ncc(-c2cnn3ccc(Cl)cc23)s1 (single isomer, unassigned) [I-24]"
5,5 to 25 nM,"CCOc1cncc(-c2cnc(C(=O)N[C@H](CCN3CCCCC3)c3cccc(NS(=O)(=O)C(F)F)c3)s2)n1 [I-184, (R)-N-(1-(3-((difluoromethyl)sulfonamido)phenyl)-3-(piperidin-1-yl)propyl)-5-(6-ethoxypyrazin-2-yl)thiazole-2-carboxamide]"
6,5 to 25 nM,"CCOc1cncc(-c2cnc(C(=O)N[C@H](c3cc(NS(=O)(=O)C4CC4)ccn3)[C@@H]3CCN(CCF)C3)s2)n1 [I-108, N-((S)-(4-(cyclopropanesulfonamido)pyridin-2-yl)((R)-1-(2-fluoroethyl)pyrrolidin-3-yl)methyl)-5-(6-ethoxypyrazin-2-yl)thiazole-2-carboxamide]"
7,> 100 nM,"CCOc1cncc(-c2cnc(C(=O)N(C)[C@H](CN3CCOCC3)c3cc(NS(=O)(=O)C4CC4)ccn3)s2)n1 [I-142, (R)-N-(1-(4-(cyclopropanesulfonamido)pyridin-2-yl)-2-morpholinoethyl)-5-(6-ethoxypyrazin-2-yl)-N-methylthiazole-2-carboxamide]"
8,5 to 25 nM,"CN(C)C[C@@H](NC(=O)c1ncc(-c2cnn3ccc(Cl)cc23)s1)c1cc(NS(=O)(=O)C2CC2)ccn1 [I-165, (R)-5-(5-chloropyrazolo[1,5-a]pyridin-3-yl)-N-(1-(4-(cyclopropanesulfonamido)pyridin-2-yl)-2-(dimethylamino)ethyl)thiazole-2-carboxamide, formic acid salt]"
9,5 to 25 nM,"CCOc1cncc(-c2cnc(C(=O)N[C@H](C[C@H]3CCCCN3C(C)C)c3cc(NS(=O)(=O)C4CC4)ccn3)s2)n1 (single isomer, unassigned) [I-27]"
10,≤ 5 nM,"CCOc1cncc(-c2cnc(C(=O)N[C@@H](c3cccc(NS(=O)(=O)C(F)F)c3)[C@H](C)CO)s2)n1 [I-245, N-((1R,2S)-1-(3-((difluoromethyl)sulfonamido)phenyl)-3-hydroxy-2-methylpropyl)-5-(6-ethoxypyrazin-2-yl)thiazole-2-carboxamide]"
11,50 to 100 nM,"O=C(N[C@@H](CN1CCCC1)c1cc(NS(=O)(=O)C2CC2)ccn1)c1ncc(-c2cnn3ccc(Cl)cc23)s1 [I-162, (S)-5-(5-chloropyrazolo[1,5-a]pyridin-3-yl)-N-(1-(4-(cyclopropanesulfonamido)pyridin-2-yl)-2-(pyrrolidin-1-yl)ethyl)thiazole-2-carboxamide]"
12,5 to 25 nM,"CCOc1cncc(-c2cnc(C(=O)N[C@H](CCNC3CC3)c3cc(NS(=O)(=O)C4CC4)ccn3)s2)n1 [I-186, (R)-N-(1-(4-(cyclopropanesulfonamido)pyridin-2-yl)-3-(cyclopropylamino)propyl)-5-(6-ethoxypyrazin-2-yl)thiazole-2-carboxamide]"
13,25 to 50 nM,"O=C(N[C@H](c1cc(NS(=O)(=O)C2CC2)ccn1)C1CCOCC1)c1ncc(-c2cnn3ccc(Cl)cc23)s1 [I-85, (S)-5-(5-chloropyrazolo[1,5-a]pyridin-3-yl)-N-((4-(cyclopropanesulfonamido)pyridin-2-yl)(tetrahydro-2H-pyran-4-yl)methyl)thiazole-2-carboxamide]"
14,5 to 25 nM,"CCOc1cncc(-c2cnc(C(=O)N[C@@H](c3cc(NS(=O)(=O)C4CC4)ccn3)[C@@H](C)OC)s2)n1 [I-46, N-((1S,2R)-1-(4-(cyclopropanesulfonamido)pyridin-2-yl)-2-methoxypropyl)-5-(6-ethoxypyrazin-2-yl)thiazole-2-carboxamide]"
15,50 to 100 nM,"CN(C)C[C@H](NC(=O)c1ncc(-c2cnn3ccc(Cl)cc23)s1)c1cc(NS(=O)(=O)C2CC2)ccn1 [I-164, (S)-5-(5-chloropyrazolo[1,5-a]pyridin-3-yl)-N-(1-(4-(cyclopropanesulfonamido)pyridin-2-yl)-2-(dimethylamino)ethyl)thiazole-2-carboxamide, formic acid salt]"
16,≤ 5 nM,"CCOc1cncc(-c2cnc(C(=O)N[C@@H](c3cc(NS(=O)(=O)C4CC4)ccn3)[C@@H](C)O)s2)n1 [I-269, N-((1S,2R)-1-(4-(cyclopropanesulfonamido)pyridin-2-yl)-2-hydroxypropyl)-5-(6-ethoxypyrazin-2-yl)thiazole-2-carboxamide]"
17,25 to 50 nM,"CCOc1cncc(-c2ccc(C(=O)NCc3cc(NS(=O)(=O)C4CC4)ccn3)cn2)n1 [I-172, N-((4-(cyclopropanesulfonamido)pyridin-2-yl)methyl)-6-(6-ethoxypyrazin-2-yl)nicotinamide]"
18,25 to 50 nM,"CCOc1cncc(-c2cnc(C(=O)N[C@@H](c3cc(NS(=O)(=O)C4CC4)ccn3)[C@@H](C)N3C[C@H]4C[C@@H]3CO4)s2)n1 [I-169, N-((1R,2R)-2-((1R,4R)-2-oxa-5-azabicyclo[2.2.1]heptan-5-yl)-1-(4-(cyclopropanesulfonamido)pyridin-2-yl)propyl)-5-(6-ethoxypyrazin-2-yl)thiazole-2-carboxamide]"
19,5 to 25 nM,"CCOc1cncc(-c2cnc(C(=O)N[C@@H](c3cc(NS(=O)(=O)C4CC4)ccn3)[C@H]3CCN(C4CCCC4)C3)s2)n1 [I-96, N-((R)-((S)-1-cyclopentylpyrrolidin-3-yl)(4-(cyclopropanesulfonamido)pyridin-2-yl)methyl)-5-(6-ethoxypyrazin-2-yl)thiazole-2-carboxamide]"
20,5 to 25 nM,"C[C@H](CO)[C@H](NC(=O)c1ncc(-c2cnn3ccc(Cl)cc23)s1)c1cc(NS(=O)(=O)C2CC2)ccn1 [I-233, 5-(5-chloropyrazolo[1,5-a]pyridin-3-yl)-N-((1S,2S)-1-(4-(cyclopropanesulfonamido)pyridin-2-yl)-3-hydroxy-2-methylpropyl)thiazole-2-carboxamide]"
